Data on two compounds can be found in patent US20220323599A1, “ANTI-BCMA ANTIBODY CONJUGATE, COMPOSITIONS COMPRISING THE SAME, AND METHODS OF MAKING AND USING THE SAME” (CELGENE CORPORATION, priority 2019, published 2022).

The experiment has as its system MM.1S multiple myeloma cells. Put plainly: Disseminated MM.1S multiple myeloma model in NSG mice. It counts as in vivo. The text has this: Female NOD severe combined immune deficient (SCID) gamma (NSG) mice 8-9 weeks of age were inoculated with 5×10^6 multiple myeloma MM.1S cells into the tail vein. Randomization by body weight and start of treatment was initiated 7 days post tumor inoculation. The treatment groups are outlined in Table 10. […] Groups 1-10 (n=6/group) were monitored for survival endpoint characterized by >20% body weight loss and clinical signs including lethargy, hind limb paralysis or moribundity. Groups 11-20 (n=3/group) were used for bone marrow harvest and analysis of tumor burden on day 28 post tumor cell inoculation. For all groups, body weights were monitored 1-2×/week.
Tumor burden was assessed and quantified by detection of hCD138 positive (hCD138+) cells in the bone marrow. Bone marrow cells from mouse femur and tibia were pooled and assessed for human CD138+ expression using the Alexa Fluor 647 mouse anti-human CD138 clone MI15 (BD Biosciences #562097) according to the manufacturer's protocol. […] Data was analyzed using Flowjo (Tree Star, Inc., Ashland, Oreg.).
Female NOD severe combined immune deficient (SCID) gamma (NSG) mice 9-12 weeks of age were inoculated with 5×10^6 multiple myeloma MM.1S cells into the tail vein. […] Body weights were monitored 1-2×/week. […]

On to `CC(C)C[C@H](NC(=O)[C@H](Cc1ccccc1)NC(=O)c1cnccn1)B(O)O` [Velcade, bortezomib], for which the mean survival (Example 9, 0.8 mg/kg Velcade q7dx2 IP, vehicle 30.6 days) was found to be 40.6 days.
Consider “Daratumumab: MM standard of care agent, clinical grade Daratumumab”, for which, for the setting “Example 9, single agent at 3 or 10 mg/kg, single IP”, the “effect on survival compared to vehicle control” value is on record as “no significant effect on survival compared to vehicle control”.
